Reference: ChEMBL document CHEMBL1667763, “4-anilinoquinoline triazines: a novel class of hybrid antimalarial agents” (Eur J Med Chem, 2011)

system: Plasmodium falciparum 3D7; test: Selectivity index, IC50 for african green monkey Vero cells to IC50 for Plasmodium falciparum 3D7; details: not given

Structure (SMILES)	Selectivity Index
CCN(CC)CCNc1nc(Nc2ccc(Nc3ccnc4cc(Cl)ccc34)cc2)nc(Nc2ccccc2C)n1	136.49
CCN1CCN(c2nc(Nc3ccc(C)cc3)nc(Nc3cccc(Nc4ccnc5cc(Cl)ccc45)c3)n2)CC1	229.5
Cc1ccc(Nc2nc(NCc3ccccc3)nc(Nc3ccc(Nc4ccnc5cc(Cl)ccc45)cc3)n2)cc1	79.44
CCN1CCN(c2nc(Nc3ccc(C)cc3)nc(Nc3ccc(Nc4ccnc5cc(Cl)ccc45)cc3)n2)CC1	35.61
Cc1ccccc1Nc1nc(NCc2ccccc2)nc(Nc2ccc(Nc3ccnc4cc(Cl)ccc34)cc2)n1	2129.68
CN1CCN(c2nc(Nc3ccccc3)nc(Nc3cccc(Nc4ccnc5cc(Cl)ccc45)c3)n2)CC1	223.4
CN1CCN(c2nc(Nc3ccc(Nc4ccnc5cc(Cl)ccc45)cc3)nc(N3CCCCC3)n2)CC1	106.35
Cc1ccc(Nc2nc(N)nc(Nc3ccc(Nc4ccnc5cc(Cl)ccc45)cc3)n2)cc1	134.89
CCCCNc1nc(Nc2ccc(C)cc2)nc(Nc2ccc(Nc3ccnc4cc(Cl)ccc34)cc2)n1	101.03
CN1CCN(c2nc(Nc3ccccc3)nc(Nc3ccc(Nc4ccnc5cc(Cl)ccc45)cc3)n2)CC1	92.06
CNc1nc(Nc2ccc(Nc3ccnc4cc(Cl)ccc34)cc2)nc(Nc2ccccc2C)n1	240.35
Cc1ccccc1Nc1nc(NCCCN2CCOCC2)nc(Nc2ccc(Nc3ccnc4cc(Cl)ccc34)cc2)n1	418.75
CCN(CC)CCNc1nc(Nc2ccc(Nc3ccnc4cc(Cl)ccc34)cc2)nc(N2CCCCC2)n1	59.71
Cc1ccccc1Nc1nc(N)nc(Nc2ccc(Nc3ccnc4cc(Cl)ccc34)cc2)n1	163.54
Clc1ccc2c(Nc3ccc(Nc4nc(NC5CCCCC5)nc(N5CCCCC5)n4)cc3)ccnc2c1	189.52
Clc1ccc2c(Nc3ccc(Nc4nc(NCc5ccccc5)nc(Nc5ccccc5)n4)cc3)ccnc2c1	151.04
Nc1nc(Nc2ccccc2)nc(Nc2ccc(Nc3ccnc4cc(Cl)ccc34)cc2)n1	132.63
Clc1ccc2c(Nc3ccc(Nc4nc(NCc5ccccc5)nc(N5CCCCC5)n4)cc3)ccnc2c1	98.42
CNc1nc(Nc2ccccc2)nc(Nc2ccc(Nc3ccnc4cc(Cl)ccc34)cc2)n1	290.68
CCN(CC)CCNc1nc(Nc2ccccc2)nc(Nc2ccc(Nc3ccnc4cc(Cl)ccc34)cc2)n1	79.47
CCN1CCN(c2nc(Nc3ccccc3)nc(Nc3cccc(Nc4ccnc5cc(Cl)ccc45)c3)n2)CC1	90.51

system: Plasmodium falciparum; test: Antimalarial activity against chloroquine-sensitive Plasmodium falciparum 3D7 infected in erythrocytes after 72 hrs by syber green 1 assay; details: 3D7, 72 h

Structure (SMILES)	IC50 [nM]
CCN(CC)CCNc1nc(Nc2ccc(Nc3ccnc4cc(Cl)ccc34)cc2)nc(Nc2ccccc2C)n1	26.1
CCN1CCN(c2nc(Nc3ccc(C)cc3)nc(Nc3cccc(Nc4ccnc5cc(Cl)ccc45)c3)n2)CC1	41
Cc1ccc(Nc2nc(NCc3ccccc3)nc(Nc3ccc(Nc4ccnc5cc(Cl)ccc45)cc3)n2)cc1	63.5
CCN1CCN(c2nc(Nc3ccc(C)cc3)nc(Nc3ccc(Nc4ccnc5cc(Cl)ccc45)cc3)n2)CC1	11.9
Cc1ccccc1Nc1nc(NCc2ccccc2)nc(Nc2ccc(Nc3ccnc4cc(Cl)ccc34)cc2)n1	27.8
CN1CCN(c2nc(Nc3ccccc3)nc(Nc3cccc(Nc4ccnc5cc(Cl)ccc45)c3)n2)CC1	47.2
CN1CCN(c2nc(Nc3ccc(Nc4ccnc5cc(Cl)ccc45)cc3)nc(N3CCCCC3)n2)CC1	34.8
Cc1ccc(Nc2nc(N)nc(Nc3ccc(Nc4ccnc5cc(Cl)ccc45)cc3)n2)cc1	11.9
CCCCNc1nc(Nc2ccc(C)cc2)nc(Nc2ccc(Nc3ccnc4cc(Cl)ccc34)cc2)n1	44.5
CN1CCN(c2nc(Nc3ccccc3)nc(Nc3ccc(Nc4ccnc5cc(Cl)ccc45)cc3)n2)CC1	5.85
CNc1nc(Nc2ccc(Nc3ccnc4cc(Cl)ccc34)cc2)nc(Nc2ccccc2C)n1	37.6
Cc1ccccc1Nc1nc(NCCCN2CCOCC2)nc(Nc2ccc(Nc3ccnc4cc(Cl)ccc34)cc2)n1	13.4
CCN(CC)CCNc1nc(Nc2ccc(Nc3ccnc4cc(Cl)ccc34)cc2)nc(N2CCCCC2)n1	38.8
Cc1ccccc1Nc1nc(N)nc(Nc2ccc(Nc3ccnc4cc(Cl)ccc34)cc2)n1	29.6
Clc1ccc2c(Nc3ccc(Nc4nc(NC5CCCCC5)nc(N5CCCCC5)n4)cc3)ccnc2c1	313
Clc1ccc2c(Nc3ccc(Nc4nc(NCc5ccccc5)nc(Nc5ccccc5)n4)cc3)ccnc2c1	33.6
Nc1nc(Nc2ccccc2)nc(Nc2ccc(Nc3ccnc4cc(Cl)ccc34)cc2)n1	41.5
Clc1ccc2c(Nc3ccc(Nc4nc(NCc5ccccc5)nc(N5CCCCC5)n4)cc3)ccnc2c1	235
CNc1nc(Nc2ccccc2)nc(Nc2ccc(Nc3ccnc4cc(Cl)ccc34)cc2)n1	19
CCN(CC)CCNc1nc(Nc2ccccc2)nc(Nc2ccc(Nc3ccnc4cc(Cl)ccc34)cc2)n1	60.4
CCN1CCN(c2nc(Nc3ccccc3)nc(Nc3cccc(Nc4ccnc5cc(Cl)ccc45)c3)n2)CC1	60.1
